What is called inhibition is the drop in the measured response relative to a control, in per cent. The Ki is the dissociation constant of the complex between target and ligand, obtained from inhibition or displacement. As usually defined, the EC50 is the concentration at which the effect is half-maximal. Usually Emax stands for the size of the effect at its maximum, as opposed to the concentration needed. The IC50 is the point on the concentration scale where inhibition reaches its midpoint.

From ChEMBL document CHEMBL4354824, “4-Aryl-1-oxa-4,9-diazaspiro[5.5]undecane Derivatives as Dual μ-Opioid Receptor Agonists and σ1 Receptor Antagonists for the Treatment of Pain” (J Med Chem, 2020) come the findings set out here.

Series [1] concerns the target T1, Mu-type opioid receptor (Homo sapiens, UniProt P35372). The series is described as follows: Displacement of [3H]-DAMGO from human MOR expressed in CHOK1 cell membranes at 1 uM incubated for 60 mins by liquid scintillation counting method.
Series [2] addresses T1, Mu-type opioid receptor. The series is described as follows: biochemical.
Description: Displacement of [3H]-DAMGO from human MOR expressed in CHOK1 cell membranes incubated for 60 mins by liquid scintillation counting method
Series [3] deals with T2, Alpha-1A adrenergic receptor (Homo sapiens) (UniProt P35348).
T2 sequence (whole entry): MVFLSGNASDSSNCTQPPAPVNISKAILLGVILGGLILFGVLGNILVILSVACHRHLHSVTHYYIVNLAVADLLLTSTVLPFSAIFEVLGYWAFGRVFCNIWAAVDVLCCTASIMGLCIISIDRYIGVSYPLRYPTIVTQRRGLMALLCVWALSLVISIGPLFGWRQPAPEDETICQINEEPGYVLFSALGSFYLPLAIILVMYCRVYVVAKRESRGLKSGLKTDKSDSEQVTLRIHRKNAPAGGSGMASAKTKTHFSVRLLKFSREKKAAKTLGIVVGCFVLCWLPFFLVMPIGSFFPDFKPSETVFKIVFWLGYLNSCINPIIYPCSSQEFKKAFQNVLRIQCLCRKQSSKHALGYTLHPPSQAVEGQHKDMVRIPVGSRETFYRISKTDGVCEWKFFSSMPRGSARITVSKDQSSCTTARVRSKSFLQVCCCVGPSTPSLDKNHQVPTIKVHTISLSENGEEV
As to the kind of experiment: Displacement of [3H]-prazosin from human alpha1A adrenoreceptor expressed in enriched membranes at 1 uM incubated for 90 mins by liquid scintillation counting method relative to control. Format: cell membranes. On the technique in general: Loss of bound radioactivity is the signal in a displacement assay; it reports binding, not function.

Series [4] deals with T3, Sigma non-opioid intracellular receptor 1 (Homo sapiens, UniProt Q99720). As to the kind of experiment: Displacement of [3H]-(+)-pentazocine from human sigma-1 receptor expressed in HEK293 membranes incubated for 120 mins by liquid scintillation counting method.
T3 sequence (Q99720 whole entry): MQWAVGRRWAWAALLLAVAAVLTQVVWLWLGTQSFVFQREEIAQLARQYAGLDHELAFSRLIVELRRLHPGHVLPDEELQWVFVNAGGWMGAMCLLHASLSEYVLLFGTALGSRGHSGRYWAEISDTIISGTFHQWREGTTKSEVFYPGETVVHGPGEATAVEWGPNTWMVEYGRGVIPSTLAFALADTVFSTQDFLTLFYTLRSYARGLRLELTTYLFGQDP
Series [5] has as its target T1, Mu-type opioid receptor. The series is described as follows: Agonist activity at human MOR expressed in CHOK1 cells assessed as […] of cAMP accumulation at 1 uM incubated for 45 mins by HTRF assay. Format: functional, cell-based. (cAMP levels reflect the balance of adenylyl cyclase and phosphodiesterase activity.)
In series [6] the target is T1, Mu-type opioid receptor. As to the kind of experiment: Agonist activity at human MOR expressed in CHOK1 cells assessed as […] of cAMP accumulation incubated for 45 mins by HTRF assay. Type of series: functional, cell-based.
For series [7], the target named is T3, Sigma non-opioid intracellular receptor 1. The series is described as follows: Displacement of [3H]-(+)-pentazocine from human sigma-1 receptor expressed in HEK293 membranes at 1 uM incubated for 120 mins by liquid scintillation counting method relative to control.
A further series has as its target hERG (KCNH2) (Homo sapiens, UniProt Q12809). The series is described as follows: Inhibition of human ERG expressed in CHOK1 cells assessed as reduction in channel current at 10 uM at -80 mV holding potential by whole cell patch clamp assay relative to control. Conditions: CHO-K1 cells expressing human ERG. Format: cell-based.
Series [8] deals with T1, Mu-type opioid receptor. The series is described as follows: Agonist activity at human MOR expressed in CHOK1 cells assessed as […] of cAMP accumulation incubated for 45 mins by HTRF assay relative to DAMGO. Format: functional, cell-based.
The target in series [9] is Voltage-gated inwardly rectifying potassium channel KCNH2 (Homo sapiens, UniProt Q12809).
Chain of Voltage-gated inwardly rectifying potassium channel KCNH2 (Q12809 whole entry): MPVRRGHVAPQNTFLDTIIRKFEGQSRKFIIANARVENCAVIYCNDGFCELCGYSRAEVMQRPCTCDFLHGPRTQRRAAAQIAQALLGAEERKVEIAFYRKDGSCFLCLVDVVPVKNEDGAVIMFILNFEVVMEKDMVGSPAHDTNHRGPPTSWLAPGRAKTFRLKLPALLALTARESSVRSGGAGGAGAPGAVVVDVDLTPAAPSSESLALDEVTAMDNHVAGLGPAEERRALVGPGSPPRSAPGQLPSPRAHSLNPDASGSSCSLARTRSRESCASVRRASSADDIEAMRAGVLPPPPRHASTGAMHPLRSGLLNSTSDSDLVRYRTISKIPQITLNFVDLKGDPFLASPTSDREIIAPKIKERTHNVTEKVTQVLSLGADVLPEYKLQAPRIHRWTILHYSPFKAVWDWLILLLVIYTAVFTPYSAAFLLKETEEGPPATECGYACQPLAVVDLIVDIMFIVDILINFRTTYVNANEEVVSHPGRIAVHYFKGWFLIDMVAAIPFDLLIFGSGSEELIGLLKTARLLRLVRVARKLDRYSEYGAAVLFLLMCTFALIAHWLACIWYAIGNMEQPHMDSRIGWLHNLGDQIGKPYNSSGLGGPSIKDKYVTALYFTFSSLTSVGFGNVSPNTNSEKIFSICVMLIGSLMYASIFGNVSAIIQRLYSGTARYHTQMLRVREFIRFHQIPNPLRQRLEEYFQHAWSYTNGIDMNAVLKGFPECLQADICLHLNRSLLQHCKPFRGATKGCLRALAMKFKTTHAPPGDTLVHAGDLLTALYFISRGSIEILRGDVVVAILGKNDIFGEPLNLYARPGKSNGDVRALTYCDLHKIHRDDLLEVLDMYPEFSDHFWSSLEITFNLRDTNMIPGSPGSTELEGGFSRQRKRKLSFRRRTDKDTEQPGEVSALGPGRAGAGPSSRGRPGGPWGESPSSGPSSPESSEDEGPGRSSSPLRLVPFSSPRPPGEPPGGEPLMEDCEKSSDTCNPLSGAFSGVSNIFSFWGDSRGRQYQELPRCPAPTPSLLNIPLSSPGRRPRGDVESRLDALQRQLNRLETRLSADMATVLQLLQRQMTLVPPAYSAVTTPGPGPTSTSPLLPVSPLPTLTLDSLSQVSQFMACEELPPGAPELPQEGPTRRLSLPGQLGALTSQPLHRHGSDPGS
Description: Inhibition of human ERG expressed in CHOK1 cells assessed as reduction in channel current at -80 mV holding potential by whole cell patch clamp assay
For series [10], the target named is T1, Mu-type opioid receptor. The series is described as follows: Agonist activity at human MOR expressed in CHOK1 cells assessed as […] of cAMP accumulation at 10 uM incubated for 45 mins by HTRF assay. Type of series: functional, cell-based.

T1 sequence (P35372 whole entry): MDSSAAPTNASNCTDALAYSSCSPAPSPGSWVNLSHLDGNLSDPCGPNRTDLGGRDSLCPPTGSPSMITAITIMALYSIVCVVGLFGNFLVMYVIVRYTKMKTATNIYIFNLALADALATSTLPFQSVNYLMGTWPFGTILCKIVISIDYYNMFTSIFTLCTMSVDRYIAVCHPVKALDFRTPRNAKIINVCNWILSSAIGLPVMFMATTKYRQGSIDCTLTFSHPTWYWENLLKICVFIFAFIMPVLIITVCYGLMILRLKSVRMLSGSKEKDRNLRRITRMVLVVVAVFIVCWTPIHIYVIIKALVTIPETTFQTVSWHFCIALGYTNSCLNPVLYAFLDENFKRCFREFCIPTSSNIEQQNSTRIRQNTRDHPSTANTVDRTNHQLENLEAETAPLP
Chain of hERG (KCNH2) (Q12809 whole entry): as the sequence (Q12809 whole entry) above

Take `CC1OC2(CCN(CCc3ccccc3)CC2)CN(c2ccc(C(F)(F)F)nc2)C1=O` (stereo not given): the inhibition at Mu-type opioid receptor [1] is under 50%; in [3], 66%. In addition, the Ki is over 1000 nM at Mu-type opioid receptor [2] and 9 nM in series [4]. Moreover, on Mu-type opioid receptor [5], the Activity was under 50%. Further, on Mu-type opioid receptor [6], the EC50 is over 1000 nM.
On Mu-type opioid receptor [1], `O=C1COC2(CCN(CCc3ccccc3)C2)CN1c1ccccc1` (stereo not given) showed an inhibition of under 50%. In addition, the inhibition constant Ki is over 1000 nM at Mu-type opioid receptor [2] and 53 nM in series [4]. Also, the Activity at Mu-type opioid receptor [5] was under 50%. Moreover, the EC50 on Mu-type opioid receptor [6] is over 1000 nM.
For `CC1OC2(CCN(CCc3ccccc3)CC2)CN(c2ccc(O)cc2)C1=O` (stereo not given), the Ki on Mu-type opioid receptor [2] was determined as 606 nM; in series [4], 122 nM. The same compound displayed an inhibition in series [3] of 68%. Also, on Mu-type opioid receptor [5], the Activity was under 50%. The EC50 on Mu-type opioid receptor [6] is over 1000 nM.
`O=C(O)CC1OC2(CCN(CCc3ccccc3)CC2)CN(c2ccccc2)C1=O` (stereo not given): the inhibition (in [7]; on Mu-type opioid receptor [1]) was under 50% each time. Also, the Ki (on Mu-type opioid receptor [2]; in [4]) was over 1000 nM in each case. The Activity at Mu-type opioid receptor [5] is under 50%. For the same compound, at Mu-type opioid receptor [6], the EC50 was over 1000 nM.
On to `CC(=O)Nc1cccc(CCN2CCC3(CC2)CN(c2ccccc2)C(=O)[C@@H](C)O3)c1`, for which the inhibition at 10 µM on hERG (KCNH2) is under 50%. The Emax at Mu-type opioid receptor [8] was found to be 95%. Also, the inhibitory constant (Ki) on Mu-type opioid receptor [2] is 46 nM; in [4], 205 nM. In series [3], this compound showed an inhibition of 90%. For the same compound, the IC50 in [9] is over 10000 nM. Also, the EC50 on Mu-type opioid receptor [6] was 69 nM.
Consider `CC1OC2(CCN(CCc3ccccc3)CC2)CN(c2ccncc2)C1=O` (stereo not given), for which the inhibition at Mu-type opioid receptor [1] was under 50%; in series [3], 68%. The Ki was over 1000 nM on Mu-type opioid receptor [2] and 88 nM in [4]. Further, on Mu-type opioid receptor [5], the Activity is under 50%. Further, the EC50 on Mu-type opioid receptor [6] is over 1000 nM.
As for `CC(=O)Nc1cccc(CCN2CCC3(CC2)CN(c2ccccc2)C(=O)C(C)O3)c1` (racemic), the inhibition at 10 µM on hERG (KCNH2) is under 50%. For the same compound, the Emax at Mu-type opioid receptor [8] was determined as 96%. Besides, the inhibitory constant (Ki) at Mu-type opioid receptor [2] came to 144 nM; in [4], 147 nM. This compound also gave an inhibition in series [3] of 88%. Also, in series [9], the IC50 is over 10000 nM. Further, the EC50 on Mu-type opioid receptor [6] is 343 nM.
With `CC(=O)Nc1ccc(CCN2CCC3(CC2)CN(c2ccccc2)C(=O)C(C)O3)cc1` (stereo not given), the inhibition was under 50% at Mu-type opioid receptor [1] and 60% in [3]. Further, the Ki at Mu-type opioid receptor [2] was over 1000 nM; in [4], 237 nM. Besides, the Activity at Mu-type opioid receptor [5] was under 50%. Besides, the EC50 on Mu-type opioid receptor [6] was over 1000 nM.
Regarding `Cc1cc(OCCN2CCOCC2)nn1-c1ccc2ccccc2c1`, the Activity on Mu-type opioid receptor [10] is under 50%.
Consider `COc1ccc(N2CC3(CCN(CCc4ccccc4)CC3)OC(C)C2=O)cc1` (stereo not given), for which the inhibition was under 50% on Mu-type opioid receptor [1] and 69% in series [3]. In addition, the Ki at Mu-type opioid receptor [2] is over 1000 nM; in series [4] it was 14 nM. Further, on Mu-type opioid receptor [5], the Activity is under 50%. Further, the EC50 at Mu-type opioid receptor [6] was over 1000 nM.
